Entries after “also recorded” stand apart in the source; their conditions may differ. Like-named read-outs stand apart in the source and are kept apart here.
Assays:
[1] = tested on: P.A. PAO1 NB52019; test: MIC by broth microdilution (CLSI), P. aeruginosa; type: cell-based; conditions: Pseudomonas aeruginosa, 35° C., 20 hours
Experimental: (§1) Bacterial isolates were cultivated from −70° C. frozen stocks by two consecutive overnight passages at 35° C. in ambient air on 5% blood agar (Remel, Lenexa, Kans.). Quality control strain, P. aeruginosa ATCC 27853, A. baumannii ATCC19606 and E. coli ATCC 25922 are from the American Type Culture Collection (ATCC; Rockville, Md.) and PAO1 was received from Dr. K. Poole.
(§2) Minimal Inhibitory Concentrations (MICs) were determined by the broth microdilution method in accordance with Clinical and Laboratories Institute (CLSI) guidelines (CLSI M100-S25, Performance Standards for Antimicrobial Susceptibility Testing; Twenty-fifth Informational Supplement). In brief, fresh bacterial overnight cultures were resuspended in sterile saline, adjusted to a 0.5 McFarland turbidity standard and then diluted 2000-fold in cation adjusted Mueller-Hinton Broth II (MHB; Remel BBL) to yield a final inoculum of approximately 5×10^5 colony-forming units (CFU)/mL. […] Following incubation, assay plates were read in a microtiter plate reader at 600 nm and visually inspected to confirm the MIC endpoint well with the OD value. The lowest concentration of the compound that prevented visible growth was recorded as the MIC. Performance of the assay was monitored by testing ciprofloxacin against the laboratory quality control strain in accordance with guidelines of the CLSI.

[2] = tested on: E. coli ATCC 25922; test: MIC by broth microdilution (CLSI), E. coli, alone and with rifampicin; type: cell-based; conditions: Escherichia coli
Experimental: as §1, §2

[3] = tested on: A. baumannii ATCC19606; test: MIC by broth microdilution (CLSI), A. baumannii, alone and with rifampicin; type: cell-based; conditions: Acinetobacter baumannii
Experimental: as §1, §2

[4] = Hygroscopicity: mass change with relative humidity / deliquescence; type: physicochemical; conditions: for hygroscopicity / deliquescence (in words): exposed to air or humidity, amorphous: humidity of about 80% or higher
Experimental: FIG. 4. Isotherm Plots showing reversible mass changes of Crystalline Compound A over a Relative Humidity range of 0-90%.
Primary soller slit 2.5°; secondary soller slit 2.5°; divergent slit 0.6 mm; antiscatter slit 5.0 mm.

[5] = Stability (colour) of the solid on standing at ambient temperature; type: physicochemical; conditions: ambient / room temperature, over time
Description: This material required special handling and was not considered suitable for development as a pharmaceutical.

| Compound | MIC [1] | MIC ([2]; ATCC 25922 / ATCC 29522, in presence of 2 μg/ml rifampicin, read-out: E.C. ATCC 29522 (+2 μg/ml RIF) MIC) | MIC ([2]; ATCC25922, broth microdilution, 35° C., 20 hours, read-out: E.C. ATCC 25922 MIC) | MIC ([3]; broth microdilution, 35° C., 20 hours, read-out: A.B. ATCC 19606 MIC) | MIC ([3]; in presence of 2 μg/ml rifampicin, read-out: A.B. ATCC 19606 (+2 μg/ml RIF) MIC) | hygroscopicity / deliquescence (in words) [4] | colour stability on standing [5] | mass increase (hygroscopicity) ([4]; RH=90%) | mass increase (hygroscopicity) ([4]; relative humidity (RH) of 80%) |
| --- | --- | --- | --- | --- | --- | --- | --- | --- | --- |
| C[C@@](CCc1cc(C#CC2CC2)on1)(C(=O)NO)S(C)(=O)=O [A, (R)-4-(5-(cyclopropylethynyl)isoxazol-3-yl)-N-hydroxy-2-methyl-2-(methylsulfonyl)butanamide] | 0.25 µg/mL | ≤ 0.06 µg/mL | 2 µg/mL | > 64 µg/mL | 0.125 µg/mL | – | – | – | – |
| C[C@@](CCc1cc(C#CC2CC2)on1)(C(=O)NO)S(C)(=O)=O [amorphous Compound (A), (R)-4-(5-(cyclopropylethynyl)isoxazol-3-yl)-N-hydroxy-2-methyl-2-(methylsulfonyl)butanamide] | – | – | – | – | – | significantly deliquescent | developed a brownish color over time; also recorded: tended to darken on standing at ambient temperature | – | – |
| C[C@@](CCc1cc(C#CC2CC2)on1)(C(=O)NO)S(C)(=O)=O [crystalline Compound (A), (R)-4-(5-(cyclopropylethynyl)isoxazol-3-yl)-N-hydroxy-2-methyl-2-(methylsulfonyl)butanamide] | – | – | – | – | – | low hygroscopicity | – | 3.2% | 1.3% |
